Assay results taken from PubChem BioAssay (NCI).
“And” between values parts separate entries of the source, which are not always exact repeats. Equal entries are not always repeated.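 Tested at 5 concentrations; 48 h exposure; 96-well plates; endpoints linearly interpolated, else capped at highest concentration. Abbreviation: GI50, concentration required for 50% inhibition of growth. TGI: concentration producing complete growth inhibition.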

Key:
Test in all cases: growth of human tumour cells (NCI), 48 h
SF-539 CNS = test system: SF-539 CNS
OVCAR-3 ovarian = test system: OVCAR-3 ovarian
SN12C renal = test system: SN12C renal
IGROV1 ovarian = test system: IGROV1 ovarian
U251 CNS = test system: U251 CNS
786-0 renal = test system: 786-0 renal
CAKI-1 renal = test system: CAKI-1 renal
OVCAR-5 ovarian = test system: OVCAR-5 ovarian
MCF7 breast = test system: MCF7 breast
UO-31 renal = test system: UO-31 renal

SMILES | GI50 (SF-539 CNS) | TGI (SF-539 CNS) | GI50 (OVCAR-3 ovarian) | TGI (OVCAR-3 ovarian) | GI50 (SN12C renal) | TGI (SN12C renal) [µM] | GI50 (IGROV1 ovarian) | TGI (IGROV1 ovarian) | GI50 (U251 CNS) | TGI (U251 CNS) | GI50 (786-0 renal) | TGI (786-0 renal) | GI50 (CAKI-1 renal) | TGI (CAKI-1 renal) [µM] | GI50 (OVCAR-5 ovarian) [µM] | TGI (OVCAR-5 ovarian) [µM] | GI50 (MCF7 breast) [µM] | TGI (MCF7 breast) [µM] | GI50 (UO-31 renal) | TGI (UO-31 renal) [µM]
Cc1ccc(-c2nc3nc(-c4ccc(Cl)cc4)nc(N4CCCNCC4)c3o2)cc1 | 1.71 µM | 3.12 µM | 1.94 µM | 3.81 µM | 1.66 µM | 3.15 | 1.65 µM | 3.15 µM | 1.85 µM | 3.55 µM | 1.86 µM | 3.54 µM | 1.45 µM | 2.88 | 1.53 | 2.87 | 1.7 | 3.39 | 1.3 µM | 2.62
CC1=C([Se]CC(OC(=O)[C@@H](CSSC(C)(C)C)NC(=O)C(C)(C)C)C(=O)NCCCCCC(=O)OCc2ccccc2)C(=O)c2ccccc2C1=O (some centres undefined) | 1.9 µM | 3.36 µM | 1.87 µM | 3.38 µM | 2 µM | 3.89 | 1.9 µM | 3.66 µM | 1.25 µM | 2.81 µM | 2.1 µM | 3.66 µM | 2.18 µM | 4.52 | 2.59 | 5.44 | 3.04 | 9.74 | 1.47 µM | 3.16
CC1=Cc2cc3[n-]c(cc4nc(cc5[n-]c(cc1n2)c(C)c5CCC(=O)O)C(CCC(=O)O)=C4C)cc3C.[Cu+2] | < 1 µM and 3.52 µM | > 1 µM and 11.6 µM | > 1 µM and 26.5 µM | > 1 µM and 92.3 µM | > 1 µM and 57.7 µM | > 100 | > 1 µM and 12.5 µM | > 1 µM and 35.9 µM | > 1 µM and 9.85 µM | > 1 µM and 23.2 µM | > 1 µM and 21.1 µM | > 1 µM and 54.5 µM | > 1 µM and 23.2 µM | > 68.2 | > 100 | > 100 | 63.7 | > 100 | > 1 µM and 38.3 µM | > 92.7
Cn1c(Cc2ccccc2)nc2cc3ccccc3cc21 | 20.6 µM | 37.4 µM | 36.4 µM | > 100 µM | 18.7 µM | 39.1 | 25.5 µM | > 100 µM | 28.2 µM | > 100 µM | 26 µM | 65.1 µM | 35.5 µM | > 100 | 42.5 | > 100 | 38 | > 100 | 25.7 µM | > 100
O=C(/C=C/c1ccc2c(c1)OCO2)c1ccccc1 | 20.5 µM | 54.5 µM | 4.71 µM | 17.9 µM | 18.6 µM | 40.6 | 4.43 µM | 27.7 µM | 5.62 µM | 19 µM | 14.8 µM | 31 µM | 6.9 µM | 23 | 16.2 | 36.8 | 4.02 | 30 | 4.19 µM | 18.9
COc1cc2c3c(n(CCCn4ccnc4)c(=O)c2cc1OC)-c1ccccc1C3=O | < 0.0373 µM | 0.441 µM | < 0.0471 µM | 0.484 µM | < 0.0467 µM | 5.4 | < 0.01 µM | 0.35 µM | < 0.0122 µM | 0.57 µM | < 0.01 µM | 0.194 µM | < 0.01 µM | 0.105 | 0.26 | 1.25 | < 0.02 | > 43.4 | < 0.0141 µM | 0.0551
O=C(CSc1nc2sc3c(c2c(=O)n1-c1ccccc1)CCCCC3)N/N=C/c1ccc(F)cc1 | 1.85 µM | 3.53 µM | 1.78 µM | 4.07 µM | 1.99 µM | 6.9 | 3.32 µM | 19.2 µM | 1.93 µM | 5.31 µM | 5.49 µM | 18.8 µM | 3.18 µM | 13.5 | 3.76 | 20.6 | 2.91 | 21 | 3.77 µM | > 100
C/C=C/C/C=C/CCC(=O)C1OC1C(N)=O (centres undefined) |  | 30.6 µM |  | 32.8 µM |  | 39.8 |  | 31.8 µM |  | 30.7 µM |  | 25.8 µM |  | 29.8 |  | 32.8 |  | 30.6 |  | 29.5
O=C1OC2(c3ccccc31)c1cc(I)c(O)c(I)c1Oc1c2cc(I)c(O)c1I |  | > 100 µM |  | > 100 µM |  | > 100 |  | > 100 µM |  | > 100 µM |  | > 100 µM |  | 85 |  | > 100 |  | > 100 |  | > 100
C[C@]12CC[C@H]3[C@@H](CC=C4C[C@@H](O)CC[C@@]43C)[C@@H]1C/C(=C\c1cccc(OCCCn3ccnc3)c1)[C@@H]2O | 8.01 µM | 23.7 µM |  | 29.9 µM | 15.8 µM | 38 | 16.8 µM | 33.6 µM | 11.8 µM | 24.7 µM | 10.5 µM | 35 µM | 13.8 µM | 34.5 | 17.2 | 32.9 | 14.5 | 34.2 | 13 µM | 28.3
